BindingDB's records for doi:10.1021/jm00349a003 (1982)
pKi: −log10 of the molar value.

What follows are molecules tested against Dihydrofolate reductase (Lacticaseibacillus casei, UniProt P00381) (assay: Inhibitory activity against dihydrofolate reductase (DHFR) from Lactobacillus casei (expressed as log 1/Kiapp)).
Sequence of Dihydrofolate reductase (P00381 whole entry): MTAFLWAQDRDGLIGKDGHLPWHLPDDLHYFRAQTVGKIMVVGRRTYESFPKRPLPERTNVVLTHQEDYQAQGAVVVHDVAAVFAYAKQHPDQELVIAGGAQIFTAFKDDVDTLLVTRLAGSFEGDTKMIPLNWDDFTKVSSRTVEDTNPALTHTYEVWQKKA

**Q.** With `Nc1ncc(Cc2cccc(O)c2)c(N)n1` [3-(2,4-Diamino-pyrimidin-5-ylmethyl)-phenol] as the molecule, how does the pKi read?
**A.** 5.82

**Q.** With `Nc1ncc(Cc2cccc(F)c2)c(N)n1` as the molecule, how does the pKi read?
**A.** 5.38

**Q.** With `CC(=O)Nc1ccc(Cc2cnc(N)nc2N)cc1[N+](=O)[O-]` as the molecule, how does the pKi read?
**A.** 6.00

**Q.** How did the pKi turn out when `Nc1ncc(Cc2cc(O)cc(O)c2)c(N)n1` was run?
**A.** 3.38

**Q.** With `Nc1ncc(Cc2ccc([N+](=O)[O-])cc2)c(N)n1` as the molecule, how does the pKi read?
**A.** 6.00

**Q.** `CS(=O)(=O)Oc1cccc(Cc2cnc(N)nc2N)c1` was tested. Which pKi did it give?
**A.** 5.92

**Q.** With `CN(C)c1ccc(Cc2cnc(N)nc2N)cc1` as the molecule, how does the pKi read?
**A.** 6.17

**Q.** How did the pKi turn out when `CCCCCCOc1ccc(Cc2cnc(N)nc2N)cc1` was run?
**A.** 5.73

**Q.** With `CCCCOCc1cccc(Cc2cnc(N)nc2N)c1` as the molecule, how does the pKi read?
**A.** 5.49

**Q.** How did the pKi turn out when `Nc1ncc(Cc2ccc(Br)cc2)c(N)n1` was run?
**A.** 6.21

**Q.** `Nc1ccc(Cc2cnc(N)nc2N)cc1` was tested. Which pKi did it give?
**A.** 5.47

**Q.** How did the pKi turn out when `Nc1ncc(Cc2ccccc2)c(N)n1` was run?
**A.** 5.20

**Q.** `CCCCCCCOc1ccc(Cc2cnc(N)nc2N)cc1` [5-(4-Heptyloxy-benzyl)-pyrimidine-2,4-diamine] was tested. Which pKi did it give?
**A.** 5.36

**Q.** `CC(=O)Nc1ccc(Cc2cnc(N)nc2N)cc1` was tested. Which pKi did it give?
**A.** 6.05

**Q.** How did the pKi turn out when `Nc1ncc(Cc2ccc(OC(F)(F)F)cc2)c(N)n1` was run?
**A.** 6.30

**Q.** How did the pKi turn out when `COCCOc1ccc(Cc2cnc(N)nc2N)cc1` was run?
**A.** 6.05

**Q.** How did the pKi turn out when `COc1ccc(Cc2cnc(N)nc2N)cc1C(F)(F)F` was run?
**A.** 7.30

**Q.** `Cc1cccc(Cc2cnc(N)nc2N)c1` was tested. Which pKi did it give?
**A.** 5.78

**Q.** `Nc1ncc(Cc2cccc(Br)c2)c(N)n1` was tested. Which pKi did it give?
**A.** 6.23

**Q.** How did the pKi turn out when `CCCCOc1ccc(Cc2cnc(N)nc2N)cc1` was run?
**A.** 6.37

**Q.** How did the pKi turn out when `Nc1ncc(Cc2cccc(CO)c2)c(N)n1` was run?
**A.** 5.67

**Q.** `Nc1ncc(Cc2cccc(Cl)c2)c(N)n1` was tested. Which pKi did it give?
**A.** 5.90

**Q.** `COCCOc1cccc(Cc2cnc(N)nc2N)c1` was tested. Which pKi did it give?
**A.** 6.12

**Q.** How did the pKi turn out when `COc1ccc(Cc2cnc(N)nc2N)cc1OC` [Diaveridine] was run?
**A.** 6.92

**Q.** `Nc1ncc(Cc2ccc(O)c(O)c2)c(N)n1` was tested. Which pKi did it give?
**A.** 5.84

**Q.** How did the pKi turn out when `Nc1ncc(Cc2cccc(C(F)(F)F)c2)c(N)n1` was run?
**A.** 6.16

**Q.** How did the pKi turn out when `Nc1ncc(Cc2ccc(Cl)cc2)c(N)n1` was run?
**A.** 6.19

**Q.** With `Cc1ccc(Cc2cnc(N)nc2N)cc1` as the molecule, how does the pKi read?
**A.** 5.83

**Q.** With `COCCOc1ccc(Cc2cnc(N)nc2N)cc1OCCOC` as the molecule, how does the pKi read?
**A.** 6.51

**Q.** `Nc1ncc(Cc2cccc(I)c2)c(N)n1` was tested. Which pKi did it give?
**A.** 6.67

**Q.** `COCc1cccc(Cc2cnc(N)nc2N)c1` was tested. Which pKi did it give?
**A.** 5.64

**Q.** With `Nc1ncc(Cc2cc(CO)cc(CO)c2)c(N)n1` as the molecule, how does the pKi read?
**A.** 5.73

**Q.** `NC(=O)COc1cccc(Cc2cnc(N)nc2N)c1` was tested. Which pKi did it give?
**A.** 5.96

**Q.** `COCCOc1c(OC)cc(Cc2cnc(N)nc2N)cc1OC` [5-[3,5-Dimethoxy-4-(2-methoxy-ethoxy)-benzyl]-pyrimidine-2,4-diamine] was tested. Which pKi did it give?
**A.** 6.26

**Q.** With `Nc1ncc(Cc2ccc(F)cc2)c(N)n1` as the molecule, how does the pKi read?
**A.** 5.67
